Among the data in BindingDB's records for doi:10.7270/Q2TX3CTT (Broad Institute, 2010) are EC50 values, retold here.

Structures are written as SMILES. pEC50: −log10 of the molar value.

The target of the assay is Glycogen synthase kinase-3 beta (Homo sapiens, UniProt P49841). Put plainly: GSK3beta kinase inhibitor potency, dose response, biochemical, luminescence, cell-free homogeneous, retest (AID 434954).
Chain of Glycogen synthase kinase-3 beta (P49841 whole entry): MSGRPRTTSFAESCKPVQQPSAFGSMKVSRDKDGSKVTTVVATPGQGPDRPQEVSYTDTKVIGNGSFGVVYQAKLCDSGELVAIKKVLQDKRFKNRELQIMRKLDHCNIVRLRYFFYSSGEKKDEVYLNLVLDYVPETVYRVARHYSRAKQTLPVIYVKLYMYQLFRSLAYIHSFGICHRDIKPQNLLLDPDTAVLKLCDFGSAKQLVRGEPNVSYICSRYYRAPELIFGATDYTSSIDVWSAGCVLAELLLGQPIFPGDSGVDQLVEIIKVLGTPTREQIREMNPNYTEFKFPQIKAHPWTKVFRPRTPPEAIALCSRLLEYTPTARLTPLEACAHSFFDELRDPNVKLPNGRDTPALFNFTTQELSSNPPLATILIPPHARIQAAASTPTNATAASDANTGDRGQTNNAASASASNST
As a reminder, the pEC50 is the negative decadic logarithm of the EC50, by convention in mol/L. Molecule `CC(=O)N1CCc2c(sc(NC(=O)Cc3ccc(F)cc3)c2C(N)=O)C1` [6-acetyl-2-[[2-(4-fluorophenyl)-1-oxoethyl]amino]-5,7-dihydro-4H-thieno[2,3-c]pyridine-3-carboxamide] showed a pEC50 of 4.33.

Consider `COc1ccc(OC)c(Nc2nc(N)c([N+](=O)[O-])c(NCc3ccccc3)n2)c1` [N2-(2,5-dimethoxyphenyl)-5-nitro-N4-(phenylmethyl)pyrimidine-2,4,6-triamine], for which the pEC50 was less than 3.52.

Take `Cc1ccccc1C1=NC(C(F)(F)F)(C(F)(F)F)c2c(n(C)c(=O)n(C)c2=O)N1` [1,3-dimethyl-7-(2-methylphenyl)-5,5-bis(trifluoromethyl)-8H-pyrimido[4,5-d]pyrimidine-2,4-dione]: the pEC50 was less than 3.52.

Consider `Nc1nc(Nc2ccc(Cl)cc2)nc(NCCO)c1[N+](=O)[O-]` [2-[[6-amino-2-(4-chloroanilino)-5-nitropyrimidin-4-yl]amino]ethanol], for which the pEC50 is 5.77.

`CCOC(=O)c1ccc2ncc(C(=O)OCC)c(Nc3ccc(N4CCOCC4)cc3)c2c1` [diethyl 4-[(4-morpholin-4-ylphenyl)amino]quinoline-3,6-dicarboxylate] showed a pEC50 of less than 3.52.

`CCOC(=O)c1[nH]c(C)c(C(=O)NCc2ccc(OC)cc2)c1C` gave a pEC50 of less than 3.52.

The molecule `CCc1n[nH]c(=S)n1N=CC(C)=Cc1ccccc1` [MLS001164489] gave a pEC50 of less than 3.52.

Consider `O=C(CSc1ncnc2c1cnn2-c1ccc(F)cc1)NCC1CCCO1` (configuration not stated) [SMR000806858], for which the pEC50 is less than 3.52.

With `COc1ccc2oc3cc(C)[n+]([O-])c(-c4ccc(Cl)cc4)c3c2c1` [MLS000588178], the pEC50 is 4.90.

Consider `CN1CCN(/N=C/c2ccc(-c3ccc([N+](=O)[O-])cc3Cl)o2)CC1` [1-[5-(2-chloro-4-nitrophenyl)-2-furanyl]-N-(4-methyl-1-piperazinyl)methanimine], for which the pEC50 was less than 3.52.

Take `CCOC(=O)CNC(=O)CSc1ccc2nnc(-c3ccc(F)cc3)n2n1` [MLS000684782]: the pEC50 is less than 3.52.

As for `O=C(O)c1ccccc1Nc1ccc([N+](=O)[O-])cc1`, the negative logarithm of the EC50 (pEC50) was less than 3.52.

Regarding `Cc1ccnc(NC(=O)c2ccc([N+](=O)[O-])s2)c1` [N-(4-methylpyridin-2-yl)-5-nitro-thiophene-2-carboxamide], the pEC50 was less than 3.52.

In the case of `CC1=NC2=C(C(=O)CC(C)(C)C2)C(c2ccc(O)cc2)C1C#N` (configuration not stated), the pEC50 is less than 3.52.

With `Cc1ccc(CNc2nc(N)c([N+](=O)[O-])c(Nc3ccc(F)cc3)n2)cc1` [N4-(4-fluorophenyl)-N2-[(4-methylphenyl)methyl]-5-nitro-pyrimidine-2,4,6-triamine], the pEC50 is less than 3.52.

Turning to `c1cncc(-c2nc(NCC3CCCO3)c3ccccc3n2)c1` (configuration not stated), the pEC50 was less than 3.52.

`Cc1ccc(OCC(=O)N/N=C/c2ccc(O)c([N+](=O)[O-])c2)c([N+](=O)[O-])c1` [SMR000312577] had a pEC50 of less than 3.52.

Regarding `COc1cccc2cc(C(=O)NCc3ccc(C)cc3)c(=N)oc12`, the pEC50 was less than 3.52.

As to `O=C(CSc1nnc(COc2ccc(Cl)cc2)o1)N1c2ccccc2CCc2ccccc21` [2-[5-(4-Chloro-phenoxymethyl)-[1,3,4]oxadiazol-2-ylsulfanyl]-1-(10,11-dihydro-dibenzo[b,f]azepin-5-yl)-ethanone], the pEC50 is less than 3.52.

On to `CC1(C)CC(CC(=O)NC(=S)Nc2ccc([N+](=O)[O-])cc2)C(=O)O1` (configuration not stated) [2-(5,5-dimethyl-2-oxotetrahydro-3-furanyl)-N-{[(4-nitrophenyl)amino]carbonothioyl}acetamide], for which the pEC50 was 4.57.

For the molecule `Cc1cc(-c2onc3ccc(Cl)cc23)ccc1O` [(4E)-4-(5-chloro-1H-2,1-benzoxazol-3-ylidene)-2-methylcyclohexa-2,5-dien-1-one], the pEC50 is less than 3.52.

Molecule `Nc1nc(Nc2ccccc2)nc(NCc2ccco2)c1[N+](=O)[O-]` [4-N-(furan-2-ylmethyl)-5-nitro-2-N-phenylpyrimidine-2,4,6-triamine] showed a pEC50 of 5.31.

Take `Cc1ccc(Nc2nc(NCC3CCCO3)nc(N)c2[N+](=O)[O-])cc1C` (configuration not stated) [SMR000219669]: the pEC50 was 4.97. This pEC50 is 0.34 log units lower than that of the molecule before.

For the molecule `Nc1nonc1-n1nnc(C(=O)NN=Cc2ccccc2Br)c1CN1CCCC1` [SMR000620637], the pEC50 is 5.80.

`CCNC(=S)Nc1ccc2cn[nH]c2c1` [SMR000261305] showed a pEC50 of less than 3.52.

For `O=C(Nc1ccccn1)Nc1ccccc1Cl`, the pEC50 is less than 3.52.

For `CC(=O)Nc1ncc2c(n1)CC(c1ccco1)CC2=O` (configuration not stated) [N-(7-Furan-2-yl-5-oxo-5,6,7,8-tetrahydro-quinazolin-2-yl)-acetamide], the pEC50 is less than 3.52.

Turning to `CCCN(CCC)c1nc(N)nc(-c2cc(Cl)ccc2OC)n1` [MLS000538209], the pEC50 was less than 3.52.

On to `O=C1Nc2cc(C(=O)NCCCN3CCCC3)ccc2S/C1=C\c1ccccc1` [(2Z)-3-oxidanylidene-2-(phenylmethylidene)-N-(3-pyrrolidin-1-ylpropyl)-4H-1,4-benzothiazine-6-carboxamide], for which the pEC50 was 5.23.

Molecule `Nc1nc(NCCCN2CCOCC2)nc(Nc2cccc(Cl)c2)c1[N+](=O)[O-]` [MLS000769815] gave a pEC50 of 5.37.

`Nc1nc(NCCCN2CCOCC2)nc(Nc2ccccc2)c1[N+](=O)[O-]` [SMR000219678] showed a pEC50 of 5.65.

For the molecule `CSc1nc2ncc3c(n2n1)CC1c2ccccc2CCN1C3=O` (configuration not stated) [SMR000169664], the pEC50 is 4.33.

`COc1ccc(-c2nn(-c3ccccc3)cc2C=NNC(=O)c2ccc(Br)o2)cc1` [5-bromo-N-[[3-(4-methoxyphenyl)-1-phenyl-4-pyrazolyl]methylideneamino]-2-furancarboxamide] had a pEC50 of less than 3.52.

Take `O=C(CCSCCc1ccccn1)Nc1ccc(Br)cn1` [N-(5-bromopyridin-2-yl)-3-(2-pyridin-2-ylethylsulfanyl)propanamide]: the pEC50 is 4.41.

In turn, `CN1CC(=O)Nc2ccc([N+](=O)[O-])cc2C1=O` had a pEC50 of less than 3.52.

Consider `COCCOC(=O)C(C#N)c1nc2ccccc2nc1N1CCN(Cc2ccccc2)CC1` (configuration not stated) [MLS000078656], for which the pEC50 is less than 3.52.

The molecule `Cc1ccccc1NC(=O)CSc1nc(N)c(C#N)c(-c2cccs2)c1C#N` [2-(6-amino-3,5-dicyano-4-thiophen-2-ylpyridin-2-yl)sulfanyl-N-(2-methylphenyl)acetamide] showed a negative-log EC50 (pEC50) of less than 3.52.

Consider `COc1ccc(Cl)cc1NC(=O)CS(=O)(=O)c1cccc2nsnc12` [2-(2,1,3-benzothiadiazol-4-ylsulfonyl)-N-(5-chloranyl-2-methoxy-phenyl)ethanamide], for which the negative logarithm of the EC50 (pEC50) is less than 3.52.

In the case of `Cc1ccc2nc3c(cc2c1)c(NC(=O)C1CCCO1)nn3CC(C)C` (configuration not stated) [SMR000148636], the pEC50 was less than 3.52.

With `COCCCNC(=O)c1ccc(CS(=O)(=O)c2ccc(OC)cc2)o1` [5-[(4-methoxyphenyl)sulfonylmethyl]-N-(3-methoxypropyl)furan-2-carboxamide], the pEC50 was less than 3.52.

`COc1cc(C(=O)NC(=S)N(CCc2ccccc2)CCc2ccccc2)cc(OC)c1OC` [N-[bis(2-phenylethyl)carbamothioyl]-3,4,5-trimethoxybenzamide]: the negative-log EC50 (pEC50) is less than 3.52.

The molecule `O=C(Nc1cc(-c2ccccc2)n[nH]1)c1ccccc1` [SMR000459251] showed a pEC50 of less than 3.52.

For `O=C1N=C(Nc2ccc(O)cc2)SC1=Cc1ccco1` [SMR000298037], the pEC50 was less than 3.52.

Molecule `CCCCCc1cc(O)c2c(C)cc(=O)oc2c1` [5-hydroxy-4-methyl-7-pentyl-1-benzopyran-2-one] gave a pEC50 of less than 3.52.

With `O=C(Cn1cc2c(n1)CCCCC2)NC1CCN(Cc2ccccc2)CC1` [N-(1-benzylpiperidin-4-yl)-2-(5,6,7,8-tetrahydro-4H-cyclohepta[c]pyrazol-2-yl)acetamide], the pEC50 was less than 3.52.

On to `CCOC(=O)C(CC)Sc1ncnc2nc[nH]c12` (configuration not stated), for which the pEC50 is less than 3.52.

For the molecule `CCc1nnc(NC(=O)c2cccc(OC)c2)s1` [MLS000104553], the pEC50 was less than 3.52.

For the molecule `Nc1nonc1-n1nnc(C(=O)NN=Cc2ccc(OCc3ccccc3F)cc2)c1CN1CCCCC1` [SMR000646487], the negative-log EC50 (pEC50) is less than 3.52.

`Nc1nonc1-n1nnc(C(=O)NN=Cc2ccoc2)c1CSc1ccccc1` [1-(4-azanyl-1,2,5-oxadiazol-3-yl)-N-(furan-3-ylmethylideneamino)-5-(phenylsulfanylmethyl)-1,2,3-triazole-4-carboxamide] gave a pEC50 of less than 3.52.

In the case of `CCC(Sc1ccc2nnc(-c3ccc(F)cc3)n2n1)C(=O)O` (configuration not stated) [2-[[3-(4-fluorophenyl)-[1,2,4]triazolo[4,3-b]pyridazin-6-yl]thio]butanoic acid], the pEC50 was 4.53.

In turn, `CCC(=O)c1c(CC)c2n3c1CC[C@H]3CCC2` [SMR000469597] gave a pEC50 of less than 3.52.

Molecule `Fc1cccc(Nc2ncnc3n[nH]cc23)c1` [MLS001033418] gave a pEC50 of 4.49.

`COc1cccc(CNS(=O)(=O)c2cc(CN3C(=O)c4cccnc4C3=O)ccc2OC)c1` [SMR000630004]: the pEC50 is less than 3.52.

As for `CSc1nsc(CC=Nc2ccc(Cl)cc2)c1C#N` [MLS000539457], the pEC50 was less than 3.52.

Molecule `Brc1ccc(CSc2nnc(-c3cccnc3)o2)cc1` [SMR000292494] had a pEC50 of less than 3.52.

The molecule `COc1c(CC=C(C)C)cc(C2CC(=O)c3c(O)cc(O)cc3O2)c(CC=C(C)C)c1O` (configuration not stated) [5,7-dihydroxy-2-[3-hydroxy-4-methoxy-2,5-bis(3-methylbut-2-enyl)phenyl]-2,3-dihydrochromen-4-one] gave a pEC50 of less than 3.52.

With `CCN(CC)Cc1c(C(=O)NN=Cc2ccco2)nnn1-c1nonc1N` [1-(4-amino-1,2,5-oxadiazol-3-yl)-5-(diethylaminomethyl)-N-(2-furanylmethylideneamino)-4-triazolecarboxamide], the pEC50 was 3.92.

Take `COc1ccc2c(c1)-c1c(ssc1=S)C(C)(C)N2` [SMR000116363]: the negative-log EC50 (pEC50) is 5.17.

Regarding `O=C(O)CCn1cc(C(=O)O)c(-c2ccccc2)n1` [1-(2-carboxyethyl)-3-phenyl-4-pyrazolecarboxylic acid], the pEC50 was less than 3.52.

The molecule `FC(F)(F)c1ccc(CSc2nccn2-c2ccccc2)cc1` showed a pEC50 of less than 3.52.

`O=C(Nc1ccccc1)Nc1ccncc1` had a pEC50 of less than 3.52.

Molecule `N#CC(C#N)=Cc1cc2ccccc2nc1N1CCOCC1` [2-[(2-morpholin-4-ylquinolin-3-yl)methylidene]propanedinitrile] had a pEC50 of less than 3.52.
